Source: patent publication US10201564B2, “Methods of using inhaled nitric oxide gas for treatment of acute respiratory distress syndrome in children” (Mallinckrodt Hospital Products IP Limited, priority 2014, dated 2019)

Assays:
[1] = tested on: pediatric subjects with acute hypoxemic respiratory failure (AHRF); assay: Pediatric AHRF study: vital signs (systolic and diastolic blood pressure); type: in vivo, human; details: 5 ppm
Protocol: (§1) Standardized ventilatory management and weaning procedures were used. Ventilatory management was used based on an “open lung approach” using positive end-expiratory pressure (PEEP) to increase lung volume and limiting tidal volumes to reduce plateau pressures. Subjects received nitric oxide for inhalation at 5 ppm or placebo (100% Grade 5 nitrogen gas) into the inspiratory limb of the ventilator circuit using a blinded version of the INOvent® delivery system. The subjects were treated until Day 28 or extubation, whichever occurred first. Subjects were assessed daily using a spontaneous breathing trial, according to the institution's standard of care. Arterial blood gases (ABG), ventilator settings, methemoglobin, oxygenation index, systolic blood pressure, diastolic blood pressure, Pediatric Risk of Mortality (PRISM) III score, and subject positioning (prone or supine) were performed/recorded at specified times during the study. Selected centers also performed plasma cytokine assays, bronchoalveolar lavage fluid (BALF) assays, and a 6-month follow-up assessment.
(§2) The following assessments were made at baseline: arterial blood gases, ventilator settings, methemoglobin, prone position, PRISM III score, oxygenation index, systolic and diastolic blood pressure, bronchoalveolar lavage fluid assay and plasma cytokine.
(§3) The following assessments were made at 24 hours±2 hours after the start of therapy: arterial blood gases, ventilator settings, methemoglobin, systolic and diastolic blood pressure and plasma cytokine.
Mean systolic and diastolic blood pressure increased slightly from baseline in both groups at 24 hours. Descriptive statistics for systolic and diastolic blood pressure, which were taken both at baseline and at 24 hours, are summarized Table 26.

[2] = tested on: pediatric subjects with acute hypoxemic respiratory failure (AHRF); assay: Pediatric AHRF study: respiratory values (oxygen status, HFOV, CMV, ABG); type: in vivo, human; details: 5 ppm
Protocol: as §1, §2
The following assessments were made at 4 hours±1 hour after the start of therapy: arterial blood gases, ventilator settings and methemoglobin.
The following assessments were made at 12 hours±2 hours after the start of therapy: arterial blood gases and ventilator settings.
as §3
Oxygen status was determined at screening only. Respiratory values in the HFOV category were obtained at baseline, 4 hours, 12 hours, and 24 hours. Respiratory values in the categories conventional mechanical ventilation [CMV] and ABG were obtained at baseline, 4 hours, 12 hours, 24 hours, and at extubation.

For `[N]=O` [Nitric Oxide, nitric oxide], which “Diastolic BP, Mean (SD)” value ([1]; 24 Hours) is on record?
Its value is 56.0 (12.7) mmHg.

And the “Diastolic BP, Median” value ([1]; 24 Hours)?
Its value is 54.5 mmHg.

And the “Systolic BP, Mean (SD)” value ([1]; 24 Hours)?
The value was 97.9 (21.7) mmHg.

What about the “Systolic BP, Median” value ([1]; 24 Hours) of the same compound?
Its value is 103.0 mmHg.

And the “Diastolic BP, Mean (SD)” value ([1]; Baseline)?
Its value is 54.6 (11.6) mmHg.

And the “Diastolic BP, Median” value ([1]; Baseline)?
The value was 55.5 mmHg.

And the “Systolic BP, Mean (SD)” value ([1]; Baseline)?
Its value is 94.4 (17.4) mmHg.

What about the “Systolic BP, Median” value ([1]; Baseline) of the same compound?
Its value is 95.5 mmHg.

What about the “ABG BE, Mean (SD)” value ([2]; 4 Hours) of the same compound?
Its value is 0.7 (4.1) mEq/L.

What about the “ABG BE, Median” value ([2]; 4 Hours) of the same compound?
The value was 1.0 mEq/L.

And the “ABG HCO3, Mean (SD)” value ([2]; 4 Hours)?
Its value is 25.7 (3.9) mEq/L.

What about the “ABG HCO3, Median” value ([2]; 4 Hours) of the same compound?
The value was 25.8 mEq/L.

And the “ABG PaCO2, Mean (SD)” value ([2]; 4 Hours)?
Its value is 46.0 (18.2) mmHg.

What about the “ABG PaCO2, Median” value ([2]; 4 Hours) of the same compound?
Its value is 43.0 mmHg.

And the “ABG PaO2, Mean (SD)” value ([2]; 4 Hours)?
Its value is 83.2 (22.6) mmHg.

What about the “ABG PaO2, Median” value ([2]; 4 Hours) of the same compound?
Its value is 78.5 mmHg.

What about the “ABG SaO2, Mean (SD)” value ([2]; 4 Hours) of the same compound?
The value was 95.7 (2.9) %.

And the “ABG SaO2, Median” value ([2]; 4 Hours)?
Its value is 95.9%.

And the “ABG pH, Mean (SD)” value ([2]; 4 Hours)?
Its value is 7.4 (0.1).

And the “ABG pH, Median” value ([2]; 4 Hours)?
Its value is 7.4.

What about the “ABG BE, Mean (SD)” value ([2]; 12 Hours) of the same compound?
The value was 1.1 (4.1) mEq/L.

And the “ABG BE, Median” value ([2]; 12 Hours)?
Its value is 2.0 mEq/L.

What about the “ABG HCO2, Mean (SD)” value ([2]; 12 Hours) of the same compound?
Its value is 26.7 (4.1) mEq/L.

And the “ABG HCO2, Median” value ([2]; 12 Hours)?
Its value is 27.0 mEq/L.

And the “ABG PaCO2, Mean (SD)” value ([2]; 12 Hours)?
Its value is 47.4 (8.3) mmHg.

And the “ABG PaCO2, Median” value ([2]; 12 Hours)?
The value was 48.4 mmHg.

And the “ABG PaO2, Mean (SD)” value ([2]; 12 Hours)?
The value was 68.7 (20.9) mmHg.

What about the “ABG PaO2, Median” value ([2]; 12 Hours) of the same compound?
The value was 68.0 mmHg.

What about the “ABG SaO2, Mean (SD)” value ([2]; 12 Hours) of the same compound?
Its value is 93.1 (3.2) %.

And the “ABG SaO2, Median” value ([2]; 12 Hours)?
The value was 94.0%.

What about the “ABG pH, Mean (SD)” value ([2]; 12 Hours) of the same compound?
Its value is 7.4 (0.1).

And the “ABG pH, Median” value ([2]; 12 Hours)?
Its value is 7.4.

And the “ABG BE, Mean (SD)” value ([2]; 24 Hours)?
Its value is 2.3 (3.8) mEq/L.

What about the “ABG BE, Median” value ([2]; 24 Hours) of the same compound?
Its value is 2.8 mEq/L.

What about the “ABG HCO3, Mean (SD)” value ([2]; 24 Hours) of the same compound?
The value was 30.6 (14.1) mEq/L.

What about the “ABG HCO3, Median” value ([2]; 24 Hours) of the same compound?
The value was 28.0 mEq/L.

What about the “ABG PaCO2, Mean (SD)” value ([2]; 24 Hours) of the same compound?
Its value is 47.2 (11.5) mmHg.

And the “ABG PaCO2, Median” value ([2]; 24 Hours)?
Its value is 45.4 mmHg.

And the “ABG PaO2, Mean (SD)” value ([2]; 24 Hours)?
The value was 71.4 (16.8) mmHg.

And the “ABG PaO2, Median” value ([2]; 24 Hours)?
Its value is 69.0 mmHg.

And the “ABG SaO2, Mean (SD)” value ([2]; 24 Hours)?
The value was 92.2 (5.4) %.

And the “ABG SaO2, Median” value ([2]; 24 Hours)?
Its value is 93.0%.

And the “ABG pH, Mean (SD)” value ([2]; 24 Hours)?
The value was 7.4 (0.1).

What about the “ABG pH, Median” value ([2]; 24 Hours) of the same compound?
The value was 7.4.

What about the “ABG BE, Mean (SD)” value ([2]; Baseline) of the same compound?
Its value is 0.2 (5.3) mEq/L.

What about the “ABG BE, Median” value ([2]; Baseline) of the same compound?
The value was 0.4 mEq/L.

What about the “ABG HCO3, Mean (SD)” value ([2]; Baseline) of the same compound?
The value was 25.6 (5.0) mEq/L.

What about the “ABG HCO3, Median” value ([2]; Baseline) of the same compound?
The value was 26.0 mEq/L.

And the “ABG PaCO2, Mean (SD)” value ([2]; Baseline)?
The value was 45.3 (11.1) mmHg.

What about the “ABG PaCO2, Median” value ([2]; Baseline) of the same compound?
Its value is 46.5 mmHg.

What about the “ABG PaO2, Mean (SD)” value ([2]; Baseline) of the same compound?
Its value is 67.5 (13.1) mmHg.

And the “ABG PaO2, Median” value ([2]; Baseline)?
Its value is 63.0 mmHg.

And the “ABG SaO2, Mean (SD)” value ([2]; Baseline)?
The value was 92.8 (3.5) %.

And the “ABG SaO2, Median” value ([2]; Baseline)?
The value was 92.0%.

What about the “ABG pH, Mean (SD)” value ([2]; Baseline) of the same compound?
The value was 7.4 (0.1).

What about the “ABG pH, Median” value ([2]; Baseline) of the same compound?
Its value is 7.4.

What about the “ABG BE, Mean (SD)” value ([2]; Extubation Criteria) of the same compound?
The value was 5.0 (2.6) mEq/L.

What about the “ABG BE, Median” value ([2]; Extubation Criteria) of the same compound?
The value was 4.0 mEq/L.

And the “ABG HCO3, Mean (SD)” value ([2]; Extubation Criteria)?
The value was 30.2 (2.8) mEq/L.

And the “ABG HCO3, Median” value ([2]; Extubation Criteria)?
Its value is 31.0 mEq/L.

And the “ABG PaCO2, Mean (SD)” value ([2]; Extubation Criteria)?
Its value is 47.5 (8.4) mmHg.

And the “ABG PaCO2, Median” value ([2]; Extubation Criteria)?
The value was 44.0 mmHg.

What about the “ABG PaO2, Mean (SD)” value ([2]; Extubation Criteria) of the same compound?
The value was 91.8 (42.3) mmHg.

What about the “ABG PaO2, Median” value ([2]; Extubation Criteria) of the same compound?
Its value is 78.0 mmHg.

What about the “ABG SaO2, Mean (SD)” value ([2]; Extubation Criteria) of the same compound?
The value was 94.6 (5.9) %.

What about the “ABG SaO2, Median” value ([2]; Extubation Criteria) of the same compound?
The value was 96.0%.

And the “ABG pH, Mean (SD)” value ([2]; Extubation Criteria)?
The value was 7.4 (0.1).

What about the “ABG pH, Median” value ([2]; Extubation Criteria) of the same compound?
The value was 7.4.

What about the “Oxygen Status Oxygen Index 1, Mean (SD)” value ([2]; Screening) of the same compound?
The value was 22.2 (8.2).

And the “Oxygen Status Oxygen Index 1, Median” value ([2]; Screening)?
The value was 21.3.

What about the “Oxygen Status Oxygen Index 2, Mean (SD)” value ([2]; Screening) of the same compound?
The value was 22.7 (7.9).

What about the “Oxygen Status Oxygen Index 2, Median” value ([2]; Screening) of the same compound?
The value was 23.0.
